Experimental data from PMC8004798, “Identification of Bioactive Compounds from Marine Natural Products and Exploration of Structure-Activity Relationships (SAR)” (Antibiotics, 2021).
In brackets after ≈: the same amount, converted by molar mass.

Assays:
[1] = test system: methicillin-resistant Staphylococcus aureus (MRSA); experiment: Resazurin bacterial inhibition assay (MIC), MRSA; format: cell-based; conditions: Staphylococcus aureus, MRSA; commercial compounds; 18 h, resazurin; read-out: Minimum Inhibitory Concentration MRSA
E. coli EC958 = experiment: Resazurin bacterial inhibition assay (MIC), E. coli; format: cell-based; conditions: Escherichia coli, EC958; commercial compounds; 18 h, resazurin; read-out: Minimum Inhibitory Concentration E. coli
P. aeruginosa PAO1 = experiment: Resazurin bacterial inhibition assay (MIC), P. aeruginosa; format: cell-based; conditions: Pseudomonas aeruginosa, PAO1; commercial compounds; 18 h, resazurin; read-out: Minimum Inhibitory Concentration P. aeruginosa
M. tuberculosis H37Rv = experiment: Resazurin bacterial inhibition assay (MIC), M. tuberculosis; format: cell-based; conditions: Mycobacterium tuberculosis, 168 h, commercial compounds, 7 days, read-out: Minimum Inhibitory Concentration M. tuberculosis H37Rv
[2] = test system: human hepatocellular carcinoma cells (Hep-G2); experiment: Resazurin cytotoxicity assay, HepG2; conditions: commercial compounds; unit from Table 8 head
From the text: (§1) To identify marine samples with activity against MRSA, 1434 compounds from the AIMS Bioresources Library (provided by the Queensland Compound Library, Brisbane, Australia, now called Compounds Australia) were screened in a resazurin cell viability assay.
(§2) Toxicity of AIMS Extract Library. Human alveolar epithelial cells (A549), Madin-Darby canine kidney epithelial cells (MDCK), human leukaemia cells (THP-1), human hepatocellular carcinoma cells (Hep-G2) and human embryonic kidney cells 293 (HEK293) were grown and differentiated in complete RPMI (Roswell Park Memorial Institute Medium) and DMEM (Dulbecco’s Modified Eagle’s medium) tissue culture media (RPMIc and DMEMc, from the Thermo Fisher Scientific, Waltham, MA, USA) by adding 10% FBS, 200 µM L-glutamine and 1 mM HEPES buffer solution. To determine toxicity of the AIMS extract library, 2 × 10^5 of each cell type were added to a 96-well plate and left for 48 h in a humidified 5% CO2 incubator at 37 °C to adhere. Extract samples at a final concentration of 0.5 mg mL^−1 were added to the wells, then the plates incubated for 4 more days in a humidified 5% CO2 incubator at 37 °C. Then, resazurin (10 μL of 0.05% w/v) was added and after 4 h, fluorescence measured as described previously. The cell viability was calculated as percentage fluorescence relative to untreated cells.

[3] = test system: human embryonic kidney cells 293 (HEK293); experiment: Resazurin cytotoxicity assay, HEK 293; conditions: commercial compounds; unit from Table 8 head
From the text: as §1, §2

[4] = test system: Human alveolar epithelial cells (A549); experiment: Resazurin cytotoxicity assay, A549; conditions: commercial compounds; unit from Table 8 head
From the text: as §1, §2

[5] = test system: human leukaemia cells (THP-1); experiment: Resazurin cytotoxicity assay, THP-1; conditions: commercial compounds; unit from Table 8 head
From the text: as §1
as §2, with “Extract samples at a final concentration of 0.5 mg mL^−1 were added to the wells, then the plates incubated for 4 more days in a humidified 5% CO2 incubator at 37 °C.” left out

[6] = test system: different test pathogens (MRSA, E. coli, P. aeruginosa, M. tuberculosis); experiment: Bacterial inhibition assay (MIC), summary over test pathogens; format: cell-based; conditions: read-out: MICs against MRSA, E. coli and P. aeruginosa
Description: For screening of the AIMS library, each test sample (10 µL) was dispensed into a separate well of a 96 well microtiter plates (final sample concentration 0.5 mg mL^−1) using sterile dH2O. […] Bacterial suspension (90 µL, OD600nm 0.001) was added to each well and plates were incubated at 37 °C for either 18 h (MRSA, P. aeruginosa PAO1, E. coli EC958) or 7 days for M. tuberculosis H37Rv as described previously. Resazurin (10 μL; 0.05% w/v) was added and plates were incubated for 3 h or 24 h (M. tuberculosis) at 37 °C. The inhibitory activity was calculated by visual determination of colour change within wells or detection of fluorescence at 590 nm using a FLUOstar Omega microplate reader (BMG Labtech, Ortenberg, Germany). Percentage survival was calculated in comparison to the average of untreated control wells after normalising for background readings.

| Compound | MIC [1] [µM] | MIC (E. coli EC958) [µM] | MIC (P. aeruginosa PAO1) [µM] | MIC (M. tuberculosis H37Rv) [µM] | Minimum Toxicity Concentration HepG2 [2] [µM] | Minimum Toxicity Concentration HEK 293 [3] [µM] | Minimum Toxicity Concentration A549 [4] [µM] | Minimum Toxicity Concentration THP-1 [5] [µM] | MIC [6] [µM] |
| --- | --- | --- | --- | --- | --- | --- | --- | --- | --- |
| CCCCCCN [Hexylamine] | > 100 | > 100 | 50 (≈ 5.06 µg/mL) | > 100 | >100 | >100 | >100 | >100 | 50 to 100 (≈ 5.06 to 10.1 µg/mL) |
| CCCCCCN(CCCCCC)CCCCCC [Trihexylamine] | 3 (≈ 0.809 µg/mL) | 3 (≈ 0.809 µg/mL) | 6.5 (≈ 1.75 µg/mL) | > 100 | >100 | 50 | >100 | >100 | 3 to 6.5 (≈ 0.809 to 1.75 µg/mL) |
